In patent US20250302815A1, “PROTEIN TYROSINE PHOSPHATASE TARGETING LIGANDS” (CALICO LIFE SCIENCES LLC, priority 2021, published 2025) one finds DC50 data, which are given here for 16 compounds.

SMILES strings stand for the structures. Where only a bound is given, the exact number is not on record here.

The target in assay [1] is T1, PTPN2 (HiBIT-PTPN2 in 293T.109 cells) (Homo sapiens, UniProt P17706).
T1 construct: expressed in transfected cells; host or cells: 293T.109 (293T WT from ATCC)
T1 sequence (P17706 1-415): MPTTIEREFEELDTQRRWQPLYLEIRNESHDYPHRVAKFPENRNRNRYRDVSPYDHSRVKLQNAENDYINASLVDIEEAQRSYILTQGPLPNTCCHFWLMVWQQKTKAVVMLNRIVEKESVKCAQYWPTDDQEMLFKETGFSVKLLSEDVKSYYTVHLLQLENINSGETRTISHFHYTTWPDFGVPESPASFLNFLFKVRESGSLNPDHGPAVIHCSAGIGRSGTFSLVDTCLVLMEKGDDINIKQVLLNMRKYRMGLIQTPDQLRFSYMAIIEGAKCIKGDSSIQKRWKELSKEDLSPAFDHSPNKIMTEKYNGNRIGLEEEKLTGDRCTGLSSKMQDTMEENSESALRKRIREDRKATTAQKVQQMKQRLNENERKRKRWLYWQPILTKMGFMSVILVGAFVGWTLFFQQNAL
Briefly: HiBiT Degradation 293T.109 PTPN2 (Nano-Glo HiBiT Lytic Assay). The settings on record: 24.0 hours. The format is cell-based. In outline: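 Degradation read-out: lytic HiBiT luminescence after 24 h treatment (37 °C, 5% CO2) of 5000 293T cells per well expressing HiBiT-fused PTPN2 from an N-terminal tag. Dosing was 11 points, half-log steps down from 10 μM, in duplicate; vehicle-treated and no-reagent wells served as controls.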
A general note: HiBiT is a short tag that completes a luciferase, so light tracks the accessible tagged protein.

A further assay concerns the target T2, PTPN2 (B16F10.4 cells) (Mus musculus, UniProt Q06180).
T2 construct: HiBiT; host or cells: B16F10.4
T2 sequence (Q06180 1-406): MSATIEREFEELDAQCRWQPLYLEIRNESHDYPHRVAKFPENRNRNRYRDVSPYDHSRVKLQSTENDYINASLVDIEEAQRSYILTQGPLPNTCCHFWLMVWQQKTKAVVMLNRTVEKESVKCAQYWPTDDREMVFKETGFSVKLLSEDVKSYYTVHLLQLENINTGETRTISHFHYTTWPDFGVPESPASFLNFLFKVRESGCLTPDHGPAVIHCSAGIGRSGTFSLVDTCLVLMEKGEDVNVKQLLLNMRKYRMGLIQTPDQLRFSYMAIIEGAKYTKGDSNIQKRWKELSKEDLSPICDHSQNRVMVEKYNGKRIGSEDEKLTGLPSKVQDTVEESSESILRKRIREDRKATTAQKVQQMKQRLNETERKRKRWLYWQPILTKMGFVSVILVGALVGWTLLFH
The assay can be described thus: HiBiT Degradation B16F10.4 PTPN2. The format is cell-based. The following applies: 24.0 hours.

With `O=C(O)COc1c(C(=O)O)sc(-c2cccc(NC3CCN(S(=O)(=O)Cc4cccc(NC(=O)CCCCCNC(=O)CNc5cccc6c5CN(C5CCC(=O)NC5=O)C6=O)c4)CC3)c2)c1Cl` (centres unmarked) [Example 21, 3-(carboxymethoxy)-4-chloro-5-(3-((1-((3-(6-(2-((2-(2,6-dioxopiperidin-3-yl)-1-oxoisoindolin-4-yl)amino)acetamido)hexanamido)benzyl)sulfonyl)piperidin-4-yl)amino)phenyl)thiophene-2-carboxylic acid], the figures for the 50% degradation concentration (DC50) (in assay [1]; on PTPN2 (B16F10.4 cells)) were 200 to 1000 nM and not below 1000 nM, respectively.

Regarding `CC1(C)C[C@@H](Nc2cccc(-c3sc(C(=O)O)c(OCC(=O)O)c3Cl)c2)CCN1S(=O)(=O)Cc1cccc(NC(=O)COC2CN(C(=O)CNc3cccc4c3CN(C3CCC(=O)NC3=O)C4=O)C2)c1` (some centres unmarked) [Example 92], the DC50 (commonly the concentration at which degradation of the target reaches its halfway point) in assay [1] was in the range of 50 to 200 nM; on PTPN2 (B16F10.4 cells), 200 to 1000 nM.

For the compound `CC1(C)C[C@H](Nc2cccc(-c3sc(C(=O)O)c(OCC(=O)O)c3Cl)c2)CCN1S(=O)(=O)Cc1ccc(F)c(NC(=O)N2CCC(c3ccc4c5c(cccc35)C(=O)N4C3CCC(=O)NC3=O)CC2)c1` (some centres unmarked) [Example 127], the half-maximal degradation concentration (DC50) in assay [1] was 200 to 1000 nM; on PTPN2 (B16F10.4 cells) it was less than 50 nM.

On to `CC1(C)C[C@@H](Oc2cccc(-c3sc(C(=O)O)c(OCC(=O)O)c3Cl)c2)CCN1S(=O)(=O)Cc1cccc(NC(=O)N2CCC(c3ccc4c5c(cccc35)C(=O)N4C3CCC(=O)NC3=O)CC2)c1` (stereo partly drawn) [Example 228, 3-(carboxymethoxy)-4-chloro-5-(3-(((4S)-1-((3-(4-(1-(2,6-dioxopiperidin-3-yl)-2-oxo-1,2-dihydrobenzo[cd]indol-6-yl)piperidine-1-carboxamido)benzyl)sulfonyl)-2,2-dimethylpiperidin-4-yl)oxy)phenyl)thiophene-2-carboxylic acid], for which the values for the 50% degradation concentration (DC50) (in assay [1]; on PTPN2 (B16F10.4 cells)) were 200 to 1000 nM and less than 50 nM, respectively.

`Cn1c(=O)n(C2CCC(=O)NC2=O)c2ccc3c(c21)CCCN3C1CCN(C(=O)Nc2cccc(CS(=O)(=O)N3CC[C@H](Nc4cccc(-c5sc(C(=O)O)c(OCC(=O)O)c5Cl)c4)CC3(C)C)c2)CC1` (stereo partly drawn) [Example 222, 3-(carboxymethoxy)-4-chloro-5-[3-[[(4S)-1-[[3-[[4-[3-(2,6-dioxo-3-piperidyl)-1-methyl-2-oxo-8,9-dihydro-7H-imidazo[4,5-f]quinolin-6-yl]piperidine-1-carbonyl]amino]phenyl]methylsulfonyl]-2,2-dimethyl-4-piperidyl]amino]phenyl]thiophene-2-carboxylic acid]: the half-maximal degradation concentration (DC50) (in assay [1]; on PTPN2 (B16F10.4 cells)) was 50 to 200 nM throughout.

As to `CN(C(=O)C1CCN(C(=O)CNc2cccc3c2CN(C2CCC(=O)NC2=O)C3=O)CC1)c1cccc(CS(=O)(=O)N2CC[C@@H](Nc3cccc(-c4sc(C(=O)O)c(OCC(=O)O)c4Cl)c3)CC2(C)C)c1` (stereo partly drawn) [Example 66, 3-(carboxymethoxy)-4-chloro-5-(3-(((4R)-1-((3-(1-((2-(2,6-dioxopiperidin-3-yl)-1-oxoisoindolin-4-yl)glycyl)-N-methylpiperidine-4-carboxamido)benzyl)sulfonyl)-2,2-dimethylpiperidin-4-yl)amino)phenyl)thiophene-2-carboxylic acid], the figures for the half-maximal degradation concentration (DC50) (in assay [1]; at PTPN2 (B16F10.4 cells)) were 200 to 1000 nM and not below 1000 nM, respectively.

Take `Cc1cn(C2CCC(=O)NC2=O)c2ccc(C3CCN(C(=O)Nc4cccc(CS(=O)(=O)N5CC[C@H](Nc6cccc(-c7sc(C(=O)O)c(OCC(=O)O)c7Cl)c6)CC5(C)C)c4)CC3)cc12` (stereo partly drawn) [Example 211, 3-(carboxymethoxy)-4-chloro-5-[3-[[(4S)-1-[[3-[[4-[1-(2,6-dioxo-3-piperidyl)-3-methyl-indol-5-yl]piperidine-1-carbonyl]amino]phenyl]methylsulfonyl]-2,2-dimethyl-4-piperidyl]amino]phenyl]thiophene-2-carboxylic acid]: the DC50 (in assay [1]; on PTPN2 (B16F10.4 cells)) was 200 to 1000 nM each time.

Take `O=C(O)COc1c(C(=O)O)sc(-c2cccc(NC3CCN(S(=O)(=O)Cc4cccc(NC(=O)CCn5cc(CNc6cccc7c6CN(C6CCC(=O)NC6=O)C7=O)cn5)c4)CC3)c2)c1Cl` (centres unmarked) [Example 38, 3-(carboxymethoxy)-4-chloro-5-[3-[[1-[[3-[3-[4-[[[2-(2,6-dioxo-3-piperidyl)-1-oxo-isoindolin-4-yl]amino]methyl]pyrazol-1-yl]propanoylamino]phenyl]methylsulfonyl]-4-piperidyl]amino]phenyl]thiophene-2-carboxylic acid]: the DC50 in assay [1] was 200 to 1000 nM; on PTPN2 (B16F10.4 cells), not below 1000 nM.

For the compound `Cn1c(=O)n(C2CCC(=O)NC2=O)c2cc(F)c(C3CCN(C(=O)Nc4cccc(CS(=O)(=O)N5CC[C@H](Nc6cccc(-c7sc(C(=O)O)c(OCC(=O)O)c7Cl)c6)CC5(C)C)c4)CC3)cc21` (stereo partly drawn) [Example 153, 3-(carboxymethoxy)-4-chloro-5-[3-[[(4S)-1-[[3-[[4-[1-(2,6-dioxo-3-piperidyl)-6-fluoro-3-methyl-2-oxo-benzimidazol-5-yl]piperidine-1-carbonyl]amino]phenyl]methylsulfonyl]-2,2-dimethyl-4-piperidyl]amino]phenyl]thiophene-2-carboxylic acid], the DC50 in assay [1] fell in the range of 50 to 200 nM; at PTPN2 (B16F10.4 cells) it was 200 to 1000 nM.

On to `O=C(O)COc1c(C(=O)O)sc(-c2cccc(NC3CCN(S(=O)(=O)Cc4ccc(F)c(NC(=O)C5CN(C(=O)COc6cccc7c6CN(C6CCC(=O)NC6=O)C7=O)C5)c4)CC3)c2)c1Cl` (centres unmarked) [Example 93], for which the DC50 in assay [1] was 50 to 200 nM; on PTPN2 (B16F10.4 cells), 200 to 1000 nM.

In the case of `CC(C)n1c(=O)n(C2CCC(=O)NC2=O)c2ccc(C3CCN(CC(=O)Nc4cccc(CS(=O)(=O)N5CC[C@H](Nc6cccc(-c7sc(C(=O)O)c(OCC(=O)O)c7Cl)c6)CC5(C)C)c4)CC3(F)F)cc21` (stereo partly drawn) [Example 176, 3-(carboxymethoxy)-4-chloro-5-[3-[[(4S)-1-[[3-[[2-[4-[1-(2,6-dioxo-3-piperidyl)-3-isopropyl-2-oxo-benzimidazol-5-yl]-3,3-difluoro-1-piperidyl]acetyl]amino]phenyl]methylsulfonyl]-2,2-dimethyl-4-piperidyl]amino]phenyl]thiophene-2-carboxylic acid], the DC50 (in assay [1]; at PTPN2 (B16F10.4 cells)) was 50 to 200 nM each time.

`CC1(C)C[C@H](Nc2cccc(-c3sc(C(=O)O)c(OCC(=O)O)c3Cl)c2)CCN1S(=O)(=O)Cc1cccc(NC(=O)N2CCC(c3ccc4c(c3)n(C3COC3)c(=O)n4C3CCC(=O)NC3=O)CC2)c1` (stereo partly drawn) [Example 206, 3-(carboxymethoxy)-4-chloro-5-(3-(((4R)-1-((3-(4-(1-(2,6-dioxopiperidin-3-yl)-3-(oxetan-3-yl)-2-oxo-2,3-dihydro-1H-benzo[d]imidazol-5-yl)piperidine-1-carboxamido)benzyl)sulfonyl)-2,2-dimethylpiperidin-4-yl)amino)phenyl)thiophene-2-carboxylic acid]: the DC50 in assay [1] was 200 to 1000 nM; on PTPN2 (B16F10.4 cells), 50 to 200 nM.

Consider `CC1(C)C[C@@H](Nc2cccc(-c3sc(C(=O)O)c(OCC(=O)O)c3Cl)c2)CCN1S(=O)(=O)Cc1cccc(NC(=O)N2CCC(c3ccc4c(ccn4C4CCC(=O)NC4=O)c3)CC2)c1` (stereo partly drawn) [Example 196, 3-(carboxymethoxy)-4-chloro-5-(3-(((4S)-1-((3-(4-(1-(2,6-dioxopiperidin-3-yl)-1H-indol-5-yl)piperidine-1-carboxamido)benzyl)sulfonyl)-2,2-dimethylpiperidin-4-yl)amino)phenyl)thiophene-2-carboxylic acid], for which the 50% degradation concentration (DC50) (in assay [1]; on PTPN2 (B16F10.4 cells)) was 200 to 1000 nM throughout.

For `CC1(C)C[C@@H](Nc2cccc(-c3sc(C(=O)O)c(OCC(=O)O)c3Cl)c2)CCN1S(=O)(=O)Cc1ccc(F)c(NC(=O)N2CCC(c3ccc4c5c(cccc35)C(=O)N4C3CCC(=O)NC3=O)CC2)c1` (some centres unmarked) [Example 126], the DC50 in assay [1] was 50 to 200 nM; on PTPN2 (B16F10.4 cells), less than 50 nM.

On to `CC1(C)C[C@@H](Nc2cccc(-c3sc(C(=O)O)c(OCC(=O)O)c3Cl)c2)CCN1S(=O)(=O)Cc1cccc(NC(=O)CNc2ccc3c(c2)C(=O)N(C2CCC(=O)NC2=O)C3=O)c1` (stereo partly drawn) [Example 34, 3-(carboxymethoxy)-4-chloro-5-[3-[[(4S)-1-[[3-[[2-[[2-(2,6-dioxo-3-piperidyl)-1,3-dioxo-isoindolin-5-yl]amino]acetyl]amino]phenyl]methylsulfonyl]-2,2-dimethyl-4-piperidyl]amino]phenyl]thiophene-2-carboxylic acid], for which the DC50 (in assay [1]; on PTPN2 (B16F10.4 cells)) was 200 to 1000 nM each time.

Take `CC1(C)C[C@@H](Nc2cccc(-c3sc(C(=O)O)c(OCC(=O)O)c3Cl)c2)CCN1S(=O)(=O)Cc1cccc(NC(=O)CCN2CCC(Oc3cccc4c3CN(C3CCC(=O)NC3=O)C4=O)CC2)c1` (some centres unmarked) [Example 56]: the DC50 (in assay [1]; at PTPN2 (B16F10.4 cells)) was not below 1000 nM throughout.
